Biological target: T1, HDAC6 (Homo sapiens, UniProt Q9UBN7)
T1 sequence (Q9UBN7 1-1215): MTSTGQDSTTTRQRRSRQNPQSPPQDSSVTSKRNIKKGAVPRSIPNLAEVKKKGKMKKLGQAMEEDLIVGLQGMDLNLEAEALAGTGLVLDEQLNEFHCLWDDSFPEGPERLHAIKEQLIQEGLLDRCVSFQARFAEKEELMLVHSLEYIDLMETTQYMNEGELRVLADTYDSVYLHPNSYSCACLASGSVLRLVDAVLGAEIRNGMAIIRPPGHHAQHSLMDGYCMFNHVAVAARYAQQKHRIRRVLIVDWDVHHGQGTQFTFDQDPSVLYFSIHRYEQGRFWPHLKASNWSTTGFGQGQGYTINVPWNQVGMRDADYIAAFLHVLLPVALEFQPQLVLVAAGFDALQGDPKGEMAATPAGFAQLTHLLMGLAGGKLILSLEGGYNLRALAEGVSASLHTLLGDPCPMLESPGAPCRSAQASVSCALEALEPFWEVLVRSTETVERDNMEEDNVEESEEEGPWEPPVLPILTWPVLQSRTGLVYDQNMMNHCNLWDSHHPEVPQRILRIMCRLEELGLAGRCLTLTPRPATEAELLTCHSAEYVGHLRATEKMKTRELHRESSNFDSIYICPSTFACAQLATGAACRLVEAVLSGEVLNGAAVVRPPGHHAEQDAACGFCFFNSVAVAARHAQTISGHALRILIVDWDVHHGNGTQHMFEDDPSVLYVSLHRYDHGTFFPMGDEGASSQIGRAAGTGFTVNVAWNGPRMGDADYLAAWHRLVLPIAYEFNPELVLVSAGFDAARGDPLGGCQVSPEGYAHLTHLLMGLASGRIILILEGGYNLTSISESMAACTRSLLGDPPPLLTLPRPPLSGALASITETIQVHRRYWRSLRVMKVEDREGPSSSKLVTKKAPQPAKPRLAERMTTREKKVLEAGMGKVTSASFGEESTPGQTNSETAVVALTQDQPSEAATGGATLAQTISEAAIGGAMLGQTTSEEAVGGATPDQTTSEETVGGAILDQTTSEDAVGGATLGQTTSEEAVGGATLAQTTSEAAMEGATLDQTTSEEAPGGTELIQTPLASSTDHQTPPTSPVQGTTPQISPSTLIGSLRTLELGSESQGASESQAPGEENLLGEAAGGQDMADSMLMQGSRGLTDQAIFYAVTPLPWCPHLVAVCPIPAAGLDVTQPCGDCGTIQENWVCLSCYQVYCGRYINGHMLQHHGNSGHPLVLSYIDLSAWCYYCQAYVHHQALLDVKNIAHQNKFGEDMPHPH
Assay: HDAC6 degradation in PBMCs (immunoblot)
Format: cell-based
Design: endogenous in cells; host or cells: PBMCs (with or without LPS priming)
Conditions: XY-07-35 at 1 μM
From the text: Figure 3 Effect of […] mediated HDAC6 degradation on NLRP3 inflammasome activation in PBMCs.A, schematic of the mode of action of an HDAC6 degrader. The PROTAC engages both HDAC6 and the E3 ligase cereblon (CRBN), which then leads to ubiquitination and degradation of HDAC6. B, chemical structure of the HDAC6 degrader XY-07-35 and of the negative control XY-07-191 which no longer recruits CRBN. C, in vitro enzymatic assay of compound XY-07-35 on the activity of different HDACs. IC50 for each enzyme is shown. D, XY-07-35 mediated HDAC6 degradation in PBMCs. PBMCs (without or with LPS priming for 4 h) were treated with the indicated compounds and HDAC6 levels were detected by immunoblotting with an anti-HDAC6 antibody. Detection of actin was used as a control for loading. CGP, CGP084892 (Caspase-1 inhibitor); AFN700 is an inhibitor of the NF-kB pathway (IKK inhibitor). E, HDAC6 degradation impact on IL-1β release in PBMCs following MSU 200 μg/ml (5 h), nigericin 2 μM (2 h) or ATP 3 mM (0.5 h) treatment. Cells were first primed with 0.2 ng/ml LPS for 4 h at 37 °C, then treated with MSU, nigericin, and ATP as indicated. […]
Treated BMDM cells were lysed with RIPA buffer (supplied with cOmplete Protease Inhibitor Cocktail, Merck#11697498001), and protein concentration was determined by Bradford assay. […]

Structure (SMILES)	HDAC6 degradation / effect on HDAC6 levels
CN(C(=O)CCCNc1cccc2c1C(=O)N(C1CCC(=O)NC1=O)C2=O)c1ccc(NC(=O)CCCCCCC(=O)NO)cc1 (centres unmarked) [XY-07-35]	efficiently degraded
CN1C(=O)CCC(N2C(=O)c3cccc(NCCCC(=O)N(C)c4ccc(NC(=O)CCCCCCC(=O)NO)cc4)c3C2=O)C1=O (centres unmarked) [XY-07-191]	only minimal or no effect on HDAC6 levels

Source: publication PMC10850954, “HDAC6/aggresome processing pathway importance for inflammasome formation is context-dependent” (The Journal of Biological Chemistry, 2024)
